Assay: Antagonist activity at PAR4 in ICR mouse platelet-rich plasma assessed as inhibition of PAR4 AP AYPGKF-NH2-induced platelet aggregation by photo-turbidimetry assay
`Cc1cc(-c2nc3c(Cl)cc(OCCNC(=O)OC(C)(C)C)cc3s2)c2ncn(C)c(=O)c2c1` gave an IC50 of 2.07 µM. With `COc1cc(Cl)c2nc(-c3cc(C)cc4c(=O)n(C)c(C)nc34)sc2c1` the IC50 was 2.09 µM. With `Cc1cc(-c2nc3c(Cl)cc(OCCNS(=O)(=O)c4ccc(Cl)cc4)cc3s2)c2ncn(C)c(=O)c2c1` the IC50 was 1.04 µM. Molecule `CCOCn1cnc2c(-c3nc4c(Cl)cc(OC)cc4s3)cc(C)cc2c1=O` has an IC50 of 0.65 µM. With `CCCCc1cc(-c2nc3c(s2)CCCC3)c2ncn(C)c(=O)c2c1` the IC50 was 7.04 µM. For `COCc1cc2ccc(OC)c(-c3nn4ccnc4s3)c2o1`, the IC50 was 10 µM. In the case of `Cn1cnc2c(-c3nc4c(s3)CCCC4)cccc2c1=O`, the IC50 is reported as 2.61 µM. For `Cc1cc(-c2nn3ccnc3s2)c2ccn(C)c(=O)c2c1`, the IC50 was 3 µM. With `Cc1cc(-c2nc3c(s2)CCCC3)c2nc(C)n(C)c(=O)c2c1` the IC50 was 8.21 µM. For `Cc1cc2c(c(-c3nn4cc(C)nc4s3)c1)CCN(C)C2=O`, the IC50 was 8.7 µM. `Cc1cc(-c2nc3c(Cl)cc(OCCNC(=O)c4ccccc4)cc3s2)c2ncn(C)c(=O)c2c1` gave an IC50 of over 10 µM. For `CCn1cnc2c(-c3nc4c(s3)CCCC4)cc(C)cc2c1=O`, the IC50 was 3.74 µM. Work on `COCc1cc2cc(C)cc(-c3nn4cc(C)nc4s3)c2o1` yielded an IC50 of 4.82 µM. `COc1cc(Cl)c2nc(-c3cc(C)cc4c(=O)n(C)c(C(C)C)nc34)sc2c1` gave an IC50 of over 10 µM. `CCc1cc(-c2nc3c(s2)CCCC3)c2ncn(C)c(=O)c2c1` gave an IC50 of 3.54 µM. Work on `Cc1cc(-c2nc3c(Cl)cc(Cl)cc3s2)c2ncn(C)c(=O)c2c1` yielded an IC50 of 2.62 µM. Work on `Cc1cc(-c2nc3c(Cl)cc4c(c3s2)OCCO4)c2ncn(C)c(=O)c2c1` yielded an IC50 of 5.57 µM. `Cc1cc(-c2nc3c(s2)CCCC3)c2ncn(C)c(=O)c2c1` gave an IC50 of 0.11 µM. With `CCc1cc(-c2nc3c(s2)CCCC3)c2ncn(CC)c(=O)c2c1` the IC50 was over 10 µM. `COc1cc(Cl)c2nc(-c3cccc4c(=O)n(C)cnc34)sc2c1` gave an IC50 of 6.78 µM. With `CCCCc1cc(-c2nc3c(s2)CCCC3)c2ncn(CC)c(=O)c2c1` the IC50 was 6.28 µM. `CSc1nn2cc(-c3cc4ccccc4o3)nc2s1` [US9862730, Example 1] gave an IC50 of 0.94 µM. `Cc1cc(-c2ccc3ccccc3n2)c2ncn(C)c(=O)c2c1` gave an IC50 of over 10 µM. In the case of `CCc1cc(-c2nc3c(Cl)cc(OC)cc3s2)c2ncn(C)c(=O)c2c1`, the IC50 is reported as 0.16 µM. Work on `COCc1cc2ccc(OC)c(-c3nn4cc(C)nc4s3)c2o1` yielded an IC50 of 10 µM. In the case of `COCn1cnc2c(-c3nc4c(s3)CCCC4)cc(C)cc2c1=O`, the IC50 is reported as 2.32 µM. Work on `COCc1cnc2c(-c3nc4c(Cl)cc(OC)cc4s3)cc(C)cc2n1` yielded an IC50 of 0.79 µM. Molecule `COCn1cnc2c(-c3nc4c(Cl)cc(OC)cc4s3)cc(C)cc2c1=O` has an IC50 of 1 µM. `C#CCn1cnc2c(-c3nc4c(F)cc(OC)cc4s3)cc(C)cc2c1=O` showed an IC50 of 4.2 µM. With `Cc1cc(-c2cccnc2)c2ncn(C)c(=O)c2c1` the IC50 was over 10 µM. With `COc1cc(F)c2nc(-c3cc(C)cc4c(=O)n(C(C)C)cnc34)sc2c1` the IC50 was 6.74 µM. For `COc1cc(F)c2nc(-c3cc(C)cc4c(=O)n(C)cnc34)sc2c1`, the IC50 was 0.83 µM. In the case of `Cc1cc(-c2cccc3ccccc23)c2ncn(C)c(=O)c2c1`, the IC50 is reported as over 10 µM. In the case of `COc1cc(Cl)c2nc(-c3cc(C)cc4c(=O)n(C(C)C)cnc34)sc2c1`, the IC50 is reported as 9.77 µM. For `COc1cc(Cl)c2nc(-c3cc(C)cc4c(=O)n(Cc5ccccc5)cnc34)sc2c1`, the IC50 was over 10 µM. `CCCCc1cc(-c2nc3c(Cl)cc(OC)cc3s2)c2ncn(C)c(=O)c2c1` gave an IC50 of 1.38 µM. For `COCc1nc2cc(C)cc(-c3nc4c(Cl)cc(OC)cc4s3)c2[nH]1`, the IC50 was 1.63 µM. Work on `Cc1cc(-c2nc3c(Cl)cc(OCCNS(=O)(=O)c4ccccc4)cc3s2)c2ncn(C)c(=O)c2c1` yielded an IC50 of 2.52 µM. `Cc1ccc(-c2cc(C)cc3c(=O)n(C)cnc23)cc1` showed an IC50 of over 10 µM. `Cc1cc(-c2nc3c(Cl)cc(OCCNS(=O)(=O)c4ccc(Cl)cc4Cl)cc3s2)c2ncn(C)c(=O)c2c1` gave an IC50 of 0.95 µM. `COCc1cc2cc(C)cc(-c3nn4ccnc4s3)c2o1` gave an IC50 of 3.44 µM. `Cc1nn2cc(-c3cc4ccccc4o3)nc2s1` [US9862730, Example 41] showed an IC50 of 1.82 µM. In the case of `Cc1cc(-c2nc3c(s2)CCCC3)c2nc[nH]c(=O)c2c1`, the IC50 is reported as 1.38 µM. Molecule `Cc1cc(-c2nc3c(Cl)cc(OCCNS(=O)(=O)c4ccc(C(F)(F)F)cc4)cc3s2)c2ncn(C)c(=O)c2c1` has an IC50 of 0.17 µM. `Cc1cc(-c2ccc(F)cc2O)c2ncn(C)c(=O)c2c1` gave an IC50 of over 10 µM. `Cc1cc(-c2nccs2)c2ncn(C)c(=O)c2c1` gave an IC50 of 3.64 µM. Work on `Cc1cc(-c2nc3c(Cl)cc(OCCNS(C)(=O)=O)cc3s2)c2ncn(C)c(=O)c2c1` yielded an IC50 of over 10 µM. For `COc1cc(F)c2nc(-c3cccc4c(=O)n(C)cnc34)sc2c1`, the IC50 was 5.34 µM. In the case of `Cc1cc(-c2ccccc2C#N)c2ncn(C)c(=O)c2c1`, the IC50 is reported as over 10 µM. In the case of `Cc1cc(-c2nc3c(Cl)cc(OCCNS(=O)(=O)c4ccc(-c5ccccc5)cc4)cc3s2)c2ncn(C)c(=O)c2c1`, the IC50 is reported as over 10 µM. For `COc1cc(Cl)c2nc(-c3cc(C)cc4c(=O)n(C)ccc34)sc2c1`, the IC50 was 0.98 µM. `COc1cc(Cl)c2nc(-c3cc(C)cc4c3CCN(C)C4=O)sc2c1` gave an IC50 of 1.84 µM. For `Cc1cc2c(c(-c3nn4ccnc4s3)c1)CCN(C)C2=O`, the IC50 was over 10 µM. Work on `Cc1cn2nc(-c3cccc4ccoc34)sc2n1` yielded an IC50 of 7.61 µM. Molecule `Cc1cc(-c2ccc(Cl)cc2Cl)c2ncn(C)c(=O)c2c1` has an IC50 of 1.22 µM. In the case of `Cc1ccc(S(=O)(=O)NCCOc2cc(Cl)c3nc(-c4cc(C)cc5c(=O)n(C)cnc45)sc3c2)cc1`, the IC50 is reported as 0.52 µM. With `Cc1cc(-c2cccc(Cl)c2Cl)c2ncn(C)c(=O)c2c1` the IC50 was 3.7 µM. With `Cc1cc(-c2ccccc2)c2ncn(C)c(=O)c2c1` the IC50 was over 10 µM. For `COc1ccccc1-c1cc(C)cc2c(=O)n(C)cnc12`, the IC50 was 7.32 µM. `Cc1cc(-c2nc3c(s2)CCCC3)c2ncn(C(C)C)c(=O)c2c1` showed an IC50 of over 10 µM. In the case of `CCn1cnc2c(-c3nc4c(F)cc(OC)cc4s3)cc(C)cc2c1=O`, the IC50 is reported as 9.95 µM. In the case of `Cc1cc(-c2ccccc2C)c2ncn(C)c(=O)c2c1`, the IC50 is reported as over 10 µM. Work on `Cc1cc(-c2ccccc2F)c2ncn(C)c(=O)c2c1` yielded an IC50 of 5.48 µM. With `Cc1cc(-c2nc3c(Cl)cc(OCCNS(=O)(=O)c4ccc(F)cc4)cc3s2)c2ncn(C)c(=O)c2c1` the IC50 was 8.22 µM. For `Cc1cc(-c2cc3ccccc3o2)c2ncn(C)c(=O)c2c1`, the IC50 was 4.26 µM. `CCn1cnc2c(-c3nc4c(Cl)cc(OC)cc4s3)cc(C)cc2c1=O` showed an IC50 of 1.85 µM. Molecule `COCc1nc2cc(C)cc(-c3nn4cc(C)nc4s3)c2[nH]1` has an IC50 of 3.13 µM. `Cc1cc(-c2nn3cc(C)nc3s2)c2ccn(C)c(=O)c2c1` gave an IC50 of 3.21 µM. With `COc1cc(F)c2nc(-c3cc(C)cc4c(=O)n(C)c(C)nc34)sc2c1` the IC50 was 5.45 µM. With `Cc1cc(-c2nc3c(Cl)cc(OCCN)cc3s2)c2ncn(C)c(=O)c2c1` the IC50 was 3.02 µM. For `CCOCn1cnc2c(-c3nc4c(s3)CCCC4)cc(C)cc2c1=O`, the IC50 was 4.77 µM.

Assay: Antagonist activity at PAR4 in human platelet-rich plasma assessed as inhibition of PAR4 AP AYPGKF-NH2-induced platelet aggregation by photo-turbidimetry assay
Molecule `CCOCn1cnc2c(-c3nc4c(Cl)cc(OC)cc4s3)cc(C)cc2c1=O` has an IC50 of 0.107 µM. With `COc1cc(Cl)c2nc(-c3cc(C)cc4c(=O)n(C)cnc34)sc2c1` the IC50 was 0.02 µM. For `Cc1cc(-c2nc3c(s2)CCCC3)c2ncn(C)c(=O)c2c1`, the IC50 was 0.029 µM. With `CCc1cc(-c2nc3c(Cl)cc(OC)cc3s2)c2ncn(C)c(=O)c2c1` the IC50 was 0.04 µM. `COc1cc(F)c2nc(-c3cc(C)cc4c(=O)n(C)cnc34)sc2c1` showed an IC50 of 0.078 µM. Work on `Cc1cc(-c2nc3c(Cl)cc(OCCNS(=O)(=O)c4ccc(C(F)(F)F)cc4)cc3s2)c2ncn(C)c(=O)c2c1` yielded an IC50 of 0.0066 µM. In the case of `Cc1cc(-c2ccc(Cl)cc2Cl)c2ncn(C)c(=O)c2c1`, the IC50 is reported as 0.174 µM.

Source: BindingDB's records for doi:10.1016/j.ejmech.2021.113764 (China Pharmaceutical University, 2021)
